# Literature values in paper PMC13500670, “The U1 snRNP protein U1C and Helix H of U1 snRNA are critical for small molecule splicing modulator function” (Nature Communications, 2026).
# Molecular target: short RNA duplex of 5' ss (11 nt) and U1 snRNA (11 nt)
# Details: NMR construct without other U1 snRNP components; read-out: Kd between the compound and the short RNA duplex; cited from earlier work
compound,measurement,value
Cc1cn2cc(-c3cc(=O)n4cc(N5CCN(C)CC5)ccc4n3)cc(F)c2n1 [SMN-C5],Kd,28 µM
